# From patent US20100035856A1, “Beta-LACTAM-CONTAINING FORMULATIONS WITH INCREASED STABILITY IN AQUEOUS SOLUTION” (BAYER ANIMAL HEALTH GMBH, priority 2007, published 2010)
# Assay: Stability of amoxicillin/K-clavulanate 4:1 in aqueous solution with urea
# Type: physicochemical
"loss of active ingredient (amoxicillin in aqueous amoxiclav solution containing 40% urea, within 24 hours)",Structure (SMILES),"stability of clavulanic acid, effect of urea (aqueous amoxiclav solution with urea (FIG. 4))"
less than 10%,CC1(C)S[C@@H]2[C@H](NC(=O)[C@H](N)c3ccc(O)cc3)C(=O)N2[C@H]1C(=O)O [amoxicillin],–
–,O=C(O)[C@H]1/C(=C/CO)O[C@@H]2CC(=O)N21 [clavulanic acid],not adversely affected at all
